This is an account of results in patent publication US20200407712A1, “ARRAY-BASED CYCLIC PEPTIDE LIBRARIES” (HealthTell Inc., priority 2018, published 2020).

The nature of data set [1]: intramolecular disulfide formation by ambient air oxidation of bis-Cys peptides on SiO2 array surface after side-chain deprotection (TFA/TMS-OTf) and NH3-gas DKP detachment; fraction oxidized from MALDI relative peak intensities. The note with it: the molecule shown is the open-chain precursor; 8-membered ring; none (dry film on SiO2, ambient air); other; 18.0 h; scale: fraction oxidized.

Data set [2] concerns Rituximab. Briefly: Rituximab binding to constrained peptide arrays. Here is the method:
Cyclized and linear microarrays from Click and lactam wafers were probed using a seven point dilution series of Rituximab (Creative Diagnostics, TAB-016) ranging from 24.0 nM to 0.032 nM with threefold steps. Bound Rituximab was detected using an anti-human IgG-Alexa Fluor™ 555 (Thermo-Fisher) at 4.0 nM. All incubation times were for 1 hr and washes between incubation steps were conducted using Phosphate Buffered Saline with 0.05% Tween 20 (PBST). After the secondary detection step, slides were sequentially washed using PBST, distilled water and a 90% isopropanol rinse. Slides were immediately dried by centrifugation following the isopropanol rinse. Imaged arrays were gridded using commercial software to extract intensities from individual features. Data was analyzed using a custom R script. For both chemistries tested, 24.0 nM Rituximab gave the greatest differential between linear and cyclic copies of the same peptide (present on the same array) and was used for example boxplots. […] In the peptide sequence, B and X represent lactam cyclization residues Lys and Glu respectively. Individual feature replicates for BAEANPSX (cyclic) and BAEANPS (linear) from replicate arrays assayed on two separate slides were used to prepare the boxplot. A p-value comparing the replicate feature intensities was calculated using the anova function in R.

The test system of data set [3] is Rituximab. Briefly: Rituximab binding to biotinyl peptides captured on streptavidin ELISA plates. The note with it: streptavidin ELISA plate; Rituximab 66.0 to 0.03 nM; absorbance at 450 nm. The method, then: To confirm Rituximab binding to the sequences identified in Example 22, the peptides in Table 1 were prepared by Fmoc-based solid phase synthesis. Peptides were biotinylated at either the N-terminal or through the […] side chain with a long chain biotin (LCBiot). Biotinylated peptides were bound to streptavidin ELISA plates. Rituximab in PBST was applied to the array in a dilution series ranging from 66.0 to 0.03 nM using three-fold dilution steps. Plates were incubated for 1 hr at 37° C. and washed 3× with PBST. An anti-human IgG-HRP conjugate was applied to the array at 1.0 μg/mL for 1 hr at 37° C. Plates were washed 3× with PBST and TMB substrate applied for 15 min at 37° C. followed by 2N HCl to stop the reaction. Absorbance was read at 450 nm and the median of triplicate wells plotted against mAb concentration in FIG. 19. Rituximab bound constrained peptide HTP115 but not linear version HTP113 or a constrained sequence with LCBiot at the N-terminal (HTP114). Rituximab also binds to HTP116, a biotinylated version of a cyclic disulfide sequence previously reported to bind to Rituximab (Perosa et al. Blood, 2006, 107 (3), 1070-1077).

Consider `COc1cc(OC)c([P+](CC(=O)N[C@@H](CS)C(=O)N[C@@H](CS)C(=O)NCCCC[C@@H]2NC(=O)[C@@H]3CCCN3C2=O)(c2c(OC)cc(OC)cc2OC)c2c(OC)cc(OC)cc2OC)c(OC)c1` [TMPP-Ac-Cys-Cys-DKP [DKP = N-epsilon of cyclo(Lys-Pro)]], for which the ring closure, fraction oxidized by MALDI in data set [1] came out at 0.8. Regarding BAEANPSX, the “change of Rituximab binding upon Click cyclization” value in the data set on Rituximab [2] (cyclic versus linear feature, Click array) is “not”. Also, the “change of Rituximab binding upon lactam based cyclization” value in the data set on Rituximab [2] (cyclic versus linear feature, lactam array) is “increases”. Further, in the data set with Rituximab [2] (lactam array, 24.0 nM Rituximab), the “Rituximab binding on lactam array (rank among binders)” value was “amongst the top Rituximab binders”. With “LCBiot-ACPYANPSLC amide (cyclic disulfide) [HTP116, reference compound]”, in the data set with Rituximab [3], the “Rituximab binding to biotinyl peptide” value was “binds”. Still for that read-out and setting: the value for LCBiot-K(Ac)AEANPSQ amide [HTP113] was “not”; that for LCBiot-cyclo[KeAEANPSQ] [HTP114] was “not”. For the compound cyclo[KεAEANPSQ(LCBiot)] amide [HTP115], in the data set on Rituximab [3], the “Rituximab binding to biotinyl peptide” value is on record as “bound”.
